Measured values from paper PMC10039358, “The 8-bromobaicalein inhibited the replication of dengue, and Zika viruses and targeted the dengue polymerase” (Scientific Reports, 2023).

Experiments:
[1] = Cytotoxicity (CC50), MTS assay; conditions: human
From the text: (§1) LLC/MK2 (ATCC® CCL-7), HEK-293 (ATCC® CRL-1573), HepG2 (ATCC® HB-8065), THP-1 (ATCC® TIB-202), Huh-7, RD (ATCC® CCL-136™), and C6/36 (ATCC® CRL-1660) cell lines were propagated and maintained as previously described[16],[21],[40],[53]. Reference DENV1 (16007), DENV2 (NGC, 16681), DENV3 (16562), DENV4 (1036), ZIKV (SV0127/14), and EV-A71 (BRCR) were propagated in Vero, C6/36, and R.D. cells as described[16],[21] Phumee et al.[53]. Cytotoxic concentration (CC50) of LLC/MK2, THP-1, HEK-293, HepG2, Huh-7, and R.D. cells were analyzed as previously described. […] Briefly, cells were seeded overnight and infected with each virus at the multiplicity of infection (M.O.I.) of 0.1 for 1 h. The compound was added during and after infection, and cells were incubated for 72 h. Supernatants were collected for 96-well[55] or a traditional 24-well plaque titration.
(§2) Supplementary Fig. S2. […] Briefly, cells were seeded overnight before the compound addition.

[2] = Cytotoxicity (CC50), MTS assay; conditions: human; remark: listed apart in the source
From the text: as §1, §2

C57BL/6 mice = assay: Animal toxicity, 7 days intraperitoneal
Description: (A) ALT and (B) Cr levels in infant mice and (C) ALT and (D) Cr levels in adult mice taken at the 8th day after seven consecutive days of 10 mg/kg 8-bromobaicalein, once daily, intraperitoneal administration. Plasma samples were collected for analysis of hepatorenal functions. Each data point represented the ALT or Cr levels of each individual. Error bars indicated the standard deviation of the means.
All methods were carried out in accordance with relevant guidelines and regulations. All experimental protocols were approved by the Institutional Animal Care and Use Committee of the Faculty of Medicine, Chulalongkorn University, Bangkok, Thailand (certificate number: 027/2562), based on the National Institutes of Health, U.S.A.'s criteria for the use and treatment of laboratory animals and by the National University of Singapore (protocol number: R20-0073). All methods are reported in accordance with ARRIVE guidelines (https://arriveguidelines.org) for the reporting of animal experiments. The 8-bromobaicalein was daily administered at 10 mg/kg via intraperitoneal injection for 7 days (n = 6) to determine the drug safety. The control group (n = 6) was injected with the vehicle (5% DMSO, 33.25% polyethylene glycol (PEG.)-400, 1.90% ethanol, and 59.85% distilled water). All mice were weighed daily and monitored for clinical signs using a clinical scoring system. Blood samples were collected via submandibular and cardiac puncture at the 8th day after the first compound administration for alanine transaminase (EnzyChrom, EALT-100, BioAssay, Hayward, CA, USA), and serum creatinine (QuantiChromTM, DICT-500, BioAssay, Hayward, CA, USA) as markers of hepatotoxicity and nephrotoxicity, respectively.

[3] = Cytotoxicity (CC50), MTS assay
From the text: as §1, §2

DENV2 NGC = assay: Cell-based time-of-addition study, plaque assay; conditions: 2, 5 or 10 µM, added within 12 h after infection, LLC/MK2, harvested 72 h
Description: Figure 5 A scheme and DENV2 titers (pfu/ml) in LLC/MK2 cells of time-of-drug addition study. Briefly, the 2, 5, and 10 µM 8-bromobaicalein was added into DENV2-infected cells (M.O.I. of 0.1) at various time points. All supermatants were harvested at 72 h and quantified by plaque assay. Errors indicated the standard deviation of three biological replicates.
(§3) The protocol was adapted from a previous description. Briefly, LLC/MK2 cells (5 × 10^4) were seeded in a 24-well plate and incubated as described. Cells were infected with DENV2 NGC, unless otherwise indicated, at the M.O.I. of 0.1 before adding the compound at designated concentrations. DMSO at 1% was used as no inhibition control. Supernatants were collected to determined viral titers by plaque titration assay or RT-qPCR.

DENV1-4, and ZIKV = assay: Antiviral efficacy, summary over dengue serotypes and Zika; type: cell-based
ZIKV (SV0127/14) = assay: Antiviral efficacy (EC50), plaque titration; type: cell-based
From the text: as §1

DENV4 (1036) = assay: Antiviral efficacy (EC50), plaque titration; type: cell-based
From the text: as §1

EV-A71 (BRCR) = assay: Antiviral efficacy (EC50), plaque titration; type: cell-based
From the text: as §1

DENV3 (16562) = assay: Antiviral efficacy (EC50), plaque titration; type: cell-based
From the text: as §1

DENV2 (NGC) = assay: Antiviral efficacy (EC50), plaque titration; type: cell-based
From the text: as §1

DENV1 (16008) = assay: Antiviral efficacy (EC50), plaque titration; type: cell-based
From the text: as §1

[4] = tested on: chikungunya virus (CHIKV); assay: Antiviral efficacy (EC50) against chikungunya virus; type: cell-based; conditions: LLC-MK2
DENV3 = assay: Time-of-addition, viral RNA by RT-qPCR; type: cell-based; conditions: 10 µM added 1, 6, and 12 h after infection, LLC/MK2, M.O.I. 1
Description: as §3
(§4) Supplementary Fig. S8. The time-of-addition of 8-bromobaicalein against DENV3-, and ZIKV-infected LLC/MK2 cells. Briefly, the 10 µM 8-bromobaicalein was added to the virus-infected cells (M.O.I. of 1) at 1, 6, 12, 24, and 48 h post-infection. Supernatants were collected at 48 h after infection for analysis by RT-qPCR. Results were reported as percent inhibition from DMSO-treated cells.

ZIKV = assay: Time-of-addition, viral RNA by RT-qPCR; type: cell-based; conditions: 10 µM added 1, 6, and 12 h after infection, LLC/MK2, M.O.I. 1
Description: as §3, §4

[5] = 8th day after first injection, 10 mg/kg i.p., infant and adult

With `O=c1cc(-c2ccccc2)oc2c(Br)c(O)c(O)c(O)c12` [8-bromobaicalein] the CC50 at 48 h [1] was greater than 100000 nM, the CC50 at 48 h [2] was greater than 100000 nM and the Clinical scorings (C57BL/6 mice; 10 mg/kg i.p. once daily, 7 days) was “within normal range”. For the same compound, the “General health of mice” value (C57BL/6 mice; 10 mg/kg i.p. once daily, 7 days, infant and adult mice) was “healthy throughout the experiments”, the “Alanine transaminase (ALT) level, treated vs control” value (C57BL/6 mice; [5]) was “insignificantly different” and the “Plasma creatinine (Cr) level, treated vs control” value (C57BL/6 mice; [5]) was “insignificantly different”. For the same compound, the “ALT in adult cohort” value (C57BL/6 mice; adult mice, 10 mg/kg i.p., 7 days) was “slight ALT increase”, the CC50 at 48 h ([3]; human) was greater than 100000 nM and the CC50 at 48 h ([3]; rhesus monkey) was greater than 250000 nM. The “Inhibition of virion progeny” value (DENV2 NGC) was 1–2.5 log concentrations (pfu/mL), the “Selectivity index (SI) in dengue and Zika viruses” value (DENV1-4, and ZIKV; LLC/MK2) was “about 300” and the EC50 (DENV1-4, and ZIKV; Zika virus, DENV1, read-out: EC50s against DENV1-4 and ZIKV) was 660 to 880 nM. For the same compound, the “Selectivity index (SI)” value (ZIKV (SV0127/14); ZIKV, CC50/EC50 in LLC/MK2) was greater than 347.2222, the EC50 (ZIKV (SV0127/14); Zika virus, ZIKV (SV0127/14), LLC/MK2 cells, M.O.I. 0.1, 72 h) was 720 ± 200 nM and the “Selectivity index (SI)” value (DENV4 (1036); DENV4, CC50/EC50 in LLC/MK2) was greater than 312.5. For the same compound, the EC50 (DENV4 (1036); LLC-MK2, 72 h) was 800 ± 150 nM, the EC50 (EV-A71 (BRCR); Enterovirus A, EVA71, EV-A71 (BRCR), table title LLC/MK2 cells, methods R.D. cells) was greater than 25000 nM and the “Inhibition of enterovirus-A71” value (EV-A71 (BRCR); nonenveloped enterovirus-A71) was “did not inhibit”. For the same compound, the “Selectivity index (SI)” value (DENV3 (16562); DENV3, CC50/EC50 in LLC/MK2) was greater than 312.5, the EC50 (DENV3 (16562); LLC-MK2, 72 h) was 800 ± 80 nM and the “Selectivity index (SI)” value (DENV2 (NGC); DENV2, CC50/EC50 in LLC/MK2) was greater than 284.0909. The EC50 (DENV2 (NGC); Dengue virus, DENV2, LLC-MK2, 72 h) was 880 ± 140 nM, the “Selectivity index (SI)” value (DENV1 (16008); DENV1, CC50/EC50 in LLC/MK2) was greater than 378.7879 and the EC50 (DENV1 (16008); LLC-MK2, 72 h) was 660 ± 50 nM. The EC50 [4] was 490 ± 110 nM, the “Inhibition of DENV3 RNA” value (DENV3) was “inhibited” and the “Inhibition of ZIKV RNA” value (ZIKV) was “inhibited”.
